The target of the series is T1, human α-Thrombin (Homo sapiens, UniProt P00734).
T1 construct: the light chain and the heavy chain were separated by reverse phase chromatography; gift from Prof; Bode, MPI Martinsried
Description: CALI experiment: serine-protease activity of thrombin measured with Chromozym TH after laser irradiation. It is filed as biochemical. To be noted: 0.38 μM thrombin, 0.76 μM aptamer (1:2); argon ion laser 496 nm, 800 mW, 30 seconds per well; percentage of thrombin activity in a non-irradiated control; Chromozym TH substrate. The protocol: Complexes were formed by mixing 7.6 μM thrombin with the fluorescein-labeled aptamer (1:2 molar ratio) in 50 mM Tris buffer, pH 8.3, 100 mM NaCl, and an incubation time of 30 min on ice in the dark.
Control samples were prepared as described above, either omitting the aptamer, using a non-labeled aptamer or an equal concentration of FITC. Subsequently, the solutions were diluted 20-fold with the same buffer. The final concentrations were 0.38 μM thrombin and 0.76 μM aptamer. The samples were pipetted in 100 μl aliquots into wells of a flat bottom 96-well microtiter plate (Nunc A/S, Roskilde, DK), typically 1.2 ml or 12 wells total per sample. The plate was blocked with 1% BSA in PBS for 1 hour and then washed extensively prior to use.
The serine-protease activity of thrombin was measured using Chromozym TH (Roche Diagnostics GmbH, Mannheim, Germany) as substrate. […] The absorbance increase at 405 nm, due to the cleavage of Chromozym TH into a residual peptide and free […] by thrombin, was followed with the time. The absorbance difference per minute, calculated in the linear range, was used to calculate the thrombin activity in U/ml. […]

{Fluorescein} = fluorescein label

“Flu-THR15: fluorescein-labeled, thrombin-specific aptamer, 15-mer oligonucleotide GGTTGGTGTGGTTGG with the fluorescein moiety linked to its 5′ end (DNA, 5' {Fluorescein}, backbone not given here)”: the “thrombin inactivation upon irradiation (CALI effect)” value was 55%.

Values taken from patent publication US20020132266A1, “Method for modifying and identifying functional sites in proteins” (priority 1998, published 2002).
